From the supplement of paper PMC5908809

How the values were obtained:
[1] = tested on: normal NK cells expanded with K562-aAPC; assay: drug sensitivity score (DSS) (DSS units); higher = more sensitive; extreme values may be limits of the assay; details: 72 h; IL-2 2.5 ng/mL
Description: (§1)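 Drug sensitivity and resistance testing on K562-aAPC-expanded normal NK cells: 5 concentrations (10-fold steps over a 10,000-fold range), 72 h at 37 °C, viability by CellTiter-Glo normalised to DMSO and benzethonium chloride controls; DSS from the fitted curve.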

[2] = tested on: IMC-1 (IL-2 20 ng/mL); assay: percent inhibition of viability; higher = more inhibition; details: 72 h
[3] = tested on: NK-92 (IL-2 2.5 ng/mL); assay: as above; details: 72 h
[4] = tested on: normal primary NK cells, pool 3 (3 donors) (IL-2 2.5 ng/mL); assay: as above; details: 72 h
[5] = tested on: YT (IL-2 2.5 ng/mL); assay: as above; details: 72 h
[6] = tested on: NKL (IL-2 2.5 ng/mL); assay: as above; details: 72 h
[7] = tested on: normal primary NK cells, pool 2 (3 donors) (IL-2 2.5 ng/mL); assay: as above; details: 72 h
[8] = tested on: KHYG-1 (IL-2 2.5 ng/mL); assay: as above; details: 72 h
[9] = tested on: KAI3 (IL-2 2.5 ng/mL); assay: as above; details: 72 h
[10] = tested on: normal primary NK cells, pool 1 (3 donors), resting (IL-2 0 ng/mL); assay: as above; details: 72 h
[11] = tested on: NK-YS (IL-2 2.5 ng/mL); assay: as above; details: 72 h
[12] = tested on: normal primary NK cells, pool 1 (3 donors) (IL-2 2.5 ng/mL); assay: as above; details: 72 h
[13] = tested on: SNK-6 (IL-2 2.5 ng/mL); assay: as above; details: 72 h
[14] = tested on: DERL-7 (IL-2 2.5 ng/mL); assay: as above; details: 72 h
[15] = tested on: normal NK cells expanded with K562-aAPC; assay: as above; details: 72 h, IL-2 2.5 ng/mL
Description: as §1

[16] = tested on: IMC-1 (IL-2 20 ng/mL); assay: drug sensitivity score (DSS) (DSS units); higher = more sensitive; extreme values may be limits of the assay; details: 72 h
[17] = tested on: NK-92 (IL-2 2.5 ng/mL); assay: as above; details: 72 h
[18] = tested on: normal primary NK cells, pool 3 (3 donors) (IL-2 2.5 ng/mL); assay: as above; details: 72 h
[19] = tested on: YT (IL-2 2.5 ng/mL); assay: as above; details: 72 h
[20] = tested on: NKL (IL-2 2.5 ng/mL); assay: as above; details: 72 h
[21] = tested on: normal primary NK cells, pool 2 (3 donors) (IL-2 2.5 ng/mL); assay: as above; details: 72 h
[22] = tested on: KHYG-1 (IL-2 2.5 ng/mL); assay: as above; details: 72 h
[23] = tested on: KAI3 (IL-2 2.5 ng/mL); assay: as above; details: 72 h
[24] = tested on: normal primary NK cells, pool 1 (3 donors), resting (IL-2 0 ng/mL); assay: as above; details: 72 h
[25] = tested on: NK-YS (IL-2 2.5 ng/mL); assay: as above; details: 72 h
[26] = tested on: normal primary NK cells, pool 1 (3 donors) (IL-2 2.5 ng/mL); assay: as above; details: 72 h
[27] = tested on: SNK-6 (IL-2 2.5 ng/mL); assay: as above; details: 72 h
[28] = tested on: DERL-7 (IL-2 2.5 ng/mL); assay: as above; details: 72 h

NC(=O)Nc1cc(-c2cccc(F)c2)sc1C(=O)N[C@H]1CCCNC1 [AZD7762] (max concentration tested 1000 nM)
Details	drug sensitivity score
[1]	9.03
[16]	4.99
[17]	10.2
[18]	0.69
[19]	9.64
[20]	14.9
[21]	1.59
[22]	18.4
[23]	18
[24]	2.58
[25]	10.1
[26]	3.1
[27]	10
[28]	10.7

percent inhibition of viability [%]
Details	0.1 nM	1 nM	10 nM	100 nM	1000 nM
[2]	-6.23	-1.75	-2.17	-7.04	99
[3]	-12.3	2.34	-2.59	33.4	104
[4]	-4.39	6.88	-1.78	-16.7	27.9
[5]	-5.67	-1.28	2.8	28.1	99.1
[6]	-9.43	-12.1	12	71.8	94.4
[7]	-6.25	11.4	-7.48	-6.09	39.8
[8]	-7.54	-7.13	3.29	100	106
[9]	3.25	1.46	16.1	87.4	101
[10]	-1.65	27.9	17.6	7.65	15
[11]	-4.78	-5.3	-1.14	32.8	98.5
[12]	-5.93	12.7	4.94	7.28	38.7
[13]	1.39	-7.11	6.7	38.1	98.3
[14]	0.34	1.83	-2.38	40.2	96.8
[15]	-1.82	-2.38	-5.7	40.7	73.3

CC/C(=C(\c1ccc(O)cc1)c1ccc(OCCN(C)C)cc1)c1ccccc1 [4-hydroxytamoxifen] (max concentration tested 10000 nM)
Details	drug sensitivity score
[1]	4.78
[16]	5.5
[17]	6.14
[18]	3.03
[19]	6.69
[20]	4.98
[21]	5.13
[22]	5.42
[23]	6.52
[24]	4.19
[25]	4.91
[26]	3.97
[27]	4.28
[28]	7.09

percent inhibition of viability [%]
Details	1 nM	10 nM	100 nM	1000 nM	10000 nM
[2]	-4.59	-0.5	3.38	9.15	71.8
[3]	3.77	-3.77	6.43	2.65	103
[4]	-0.81	-2.52	-1.24	3.05	49.3
[5]	3.34	-0.32	-0.38	9.38	93.1
[6]	8.86	-6.55	2.97	4.58	77.8
[7]	-4	-6.91	4.61	4.67	80.2
[8]	-2.07	1.6	5.77	21.8	55.9
[9]	7.22	10.1	14.3	5.63	102
[10]	-6.81	0.21	-12.3	-11.9	88.8
[11]	-2.09	3.5	7.72	7.44	66.8
[12]	-13	0.38	-1.85	-2.34	75.4
[13]	-1.81	-16.4	0.89	-17.1	93.9
[14]	7.02	-0.93	4.62	16.8	79.2
[15]	-7.32	-3.75	-0.57	7.65	64

CN(N=O)C(=O)N[C@@H](C=O)[C@@H](O)[C@H](O)[C@H](O)CO [Streptozocin] (max concentration tested 10000 nM)
Details	drug sensitivity score
[1]	0.16
[16]	1.35
[17]	0
[18]	0
[19]	0
[20]	0
[21]	0
[22]	0
[23]	0
[24]	0
[25]	0
[26]	0
[27]	12.4
[28]	0

percent inhibition of viability [%]
Details	1 nM	10 nM	100 nM	1000 nM	10000 nM
[2]	-3	-1.77	1.49	5.01	21.2
[3]	-10.2	-0.49	-2.54	-2.99	-3.48
[4]	-12.8	-5.88	-5.23	-3.37	-3
[5]	-1.12	-3.14	1.58	-0.51	9.38
[6]	-22.4	-14.9	-15.8	-16.6	-9.59
[7]	-14.4	-2.41	1.68	-6.8	-12.2
[8]	-0.99	-4.93	2.57	-0.52	4.73
[9]	-8.8	-7.24	-7.83	-15.1	-3.23
[10]	-9.25	-22.8	-15.8	-38.7	-21.4
[11]	-3.08	-5.94	5.25	-5.62	10.8
[12]	-0.38	-7.4	-2.69	-9.47	-1.13
[13]	4.98	18.1	36.6	23.4	36.7
[14]	-4.65	-4.39	-0.36	-4.36	-9.4
[15]	-0.04	4.41	2.61	7.51	13.9
